Measurements: PubChem BioAssay (NCI)
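Cells were grown in 96-well plates and exposed to each compound for 48 hours at five concentrations; endpoints were interpolated linearly between bracketing concentrations, or set to the highest concentration if not reached. Abbreviation: GI50, concentration required for 50% inhibition of growth. Definition used: TGI = concentration required for complete inhibition of growth.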

What was measured:
Assay in all cases: growth of human tumour cells (NCI), 48 h
LOX IMVI melanoma = tested on: LOX IMVI melanoma
A498 renal = tested on: A498 renal
EKVX NSCLC = tested on: EKVX NSCLC
HCC-2998 colon = tested on: HCC-2998 colon
CCRF-CEM leukemia = tested on: CCRF-CEM leukemia
K-562 leukemia = tested on: K-562 leukemia
RXF 393 renal = tested on: RXF 393 renal
OVCAR-3 ovarian = tested on: OVCAR-3 ovarian
SK-MEL-28 melanoma = tested on: SK-MEL-28 melanoma
KM12 colon = tested on: KM12 colon
HL-60(TB) leukemia = tested on: HL-60(TB) leukemia
HS 578T breast = tested on: HS 578T breast
SK-OV-3 ovarian = tested on: SK-OV-3 ovarian
MCF7 breast = tested on: MCF7 breast
786-0 renal = tested on: 786-0 renal
OVCAR-8 ovarian = tested on: OVCAR-8 ovarian
IGROV1 ovarian = tested on: IGROV1 ovarian
MDA-MB-435 = tested on: MDA-MB-435
NCI-H23 lung = tested on: NCI-H23 lung
SN12C renal = tested on: SN12C renal
UACC-257 melanoma = tested on: UACC-257 melanoma
ACHN renal = tested on: ACHN renal
SR leukemia = tested on: SR leukemia
U251 CNS = tested on: U251 CNS
SNB-75 CNS = tested on: SNB-75 CNS
RPMI-8226 leukemia = tested on: RPMI-8226 leukemia
DU-145 prostate = tested on: DU-145 prostate
HOP-92 NSCLC = tested on: HOP-92 NSCLC
BT-549 breast = tested on: BT-549 breast
CAKI-1 renal = tested on: CAKI-1 renal
A549 NSCLC = tested on: A549 NSCLC
MALME-3M melanoma = tested on: MALME-3M melanoma
UACC-62 melanoma = tested on: UACC-62 melanoma
NCI/ADR-RES ovarian = tested on: NCI/ADR-RES ovarian
TK-10 renal = tested on: TK-10 renal
T-47D breast = tested on: T-47D breast
UO-31 renal = tested on: UO-31 renal
HCT-116 colon = tested on: HCT-116 colon
MOLT-4 leukemia = tested on: MOLT-4 leukemia
SF-539 CNS = tested on: SF-539 CNS
COLO 205 colon = tested on: COLO 205 colon
NCI-H522 lung = tested on: NCI-H522 lung
HCT-15 colon = tested on: HCT-15 colon
SNB-19 CNS = tested on: SNB-19 CNS
OVCAR-5 ovarian = tested on: OVCAR-5 ovarian
SF-268 CNS = tested on: SF-268 CNS
NCI-H460 lung = tested on: NCI-H460 lung
SW-620 colon = tested on: SW-620 colon
MDA-MB-231 breast = tested on: MDA-MB-231 breast
SF-295 CNS = tested on: SF-295 CNS
HOP-62 NSCLC = tested on: HOP-62 NSCLC
HT29 colon = tested on: HT29 colon
MDA-MB-468 breast = tested on: MDA-MB-468 breast
NCI-H226 lung = tested on: NCI-H226 lung
SK-MEL-5 melanoma = tested on: SK-MEL-5 melanoma
PC-3 prostate = tested on: PC-3 prostate
M14 melanoma = tested on: M14 melanoma
SK-MEL-2 melanoma = tested on: SK-MEL-2 melanoma
OVCAR-4 ovarian = tested on: OVCAR-4 ovarian

CN1CCN(Cc2ccc(C(=O)Nc3cccc(C#Cc4cccc5[nH]nc(N)c45)c3)cc2C(F)(F)F)CC1
GI50 (LOX IMVI melanoma): 0.469 µM
TGI (LOX IMVI melanoma): 1.61 µM
GI50 (A498 renal): 2.38 µM
TGI (A498 renal): 3.95 µM
GI50 (EKVX NSCLC): 1.09 µM
TGI (EKVX NSCLC): 2.3 µM
GI50 (HCC-2998 colon): 0.88 µM
TGI (HCC-2998 colon): 2.19 µM
GI50 (CCRF-CEM leukemia): 1.17 µM
TGI (CCRF-CEM leukemia): 3.33 µM
TGI (K-562 leukemia): 1.02 µM
GI50 (RXF 393 renal): 0.571 µM
TGI (RXF 393 renal): 1.82 µM
GI50 (OVCAR-3 ovarian): 1 µM
TGI (OVCAR-3 ovarian): 2.51 µM
GI50 (SK-MEL-28 melanoma): 1.26 µM
TGI (SK-MEL-28 melanoma): 2.53 µM
GI50 (KM12 colon): 1.41 µM
TGI (KM12 colon): 2.93 µM
GI50 (HL-60(TB) leukemia): 0.278 µM
TGI (HL-60(TB) leukemia): 1.6 µM
GI50 (HS 578T breast): 1.33 µM
TGI (HS 578T breast): 4.64 µM
GI50 (SK-OV-3 ovarian): 1.94 µM
TGI (SK-OV-3 ovarian): 3.47 µM
GI50 (MCF7 breast): 1.51 µM
TGI (MCF7 breast): 2.9 µM
GI50 (786-0 renal): 1.28 µM
TGI (786-0 renal): 2.61 µM
GI50 (OVCAR-8 ovarian): 1.16 µM
TGI (OVCAR-8 ovarian): 2.38 µM
GI50 (IGROV1 ovarian): 0.387 µM
TGI (IGROV1 ovarian): 1.44 µM
GI50 (MDA-MB-435): 1.09 µM
TGI (MDA-MB-435): 2.45 µM
GI50 (NCI-H23 lung): 1.25 µM
TGI (NCI-H23 lung): 2.53 µM
GI50 (SN12C renal): 0.739 µM
TGI (SN12C renal): 2.14 µM
GI50 (UACC-257 melanoma): 1.36 µM
TGI (UACC-257 melanoma): 2.73 µM
GI50 (ACHN renal): 0.409 µM
TGI (ACHN renal): 1.4 µM
GI50 (SR leukemia): 1.1 µM
TGI (SR leukemia): 3.35 µM
GI50 (U251 CNS): 1.22 µM
TGI (U251 CNS): 2.47 µM
GI50 (SNB-75 CNS): 1.45 µM
TGI (SNB-75 CNS): 3.69 µM
GI50 (RPMI-8226 leukemia): 1.12 µM
TGI (RPMI-8226 leukemia): 3.26 µM
GI50 (DU-145 prostate): 1.2 µM
TGI (DU-145 prostate): 2.46 µM
GI50 (HOP-92 NSCLC): 0.285 µM
TGI (HOP-92 NSCLC): 1.4 µM
GI50 (BT-549 breast): 1.8 µM
TGI (BT-549 breast): 4.06 µM
GI50 (CAKI-1 renal): 1.16 µM
TGI (CAKI-1 renal): 2.37 µM
GI50 (A549 NSCLC): 0.721 µM
TGI (A549 NSCLC): 2.01 µM
GI50 (MALME-3M melanoma): 0.284 µM
TGI (MALME-3M melanoma): 1.2 µM
GI50 (UACC-62 melanoma): 1.14 µM
TGI (UACC-62 melanoma): 2.39 µM
GI50 (NCI/ADR-RES ovarian): 1.48 µM
TGI (NCI/ADR-RES ovarian): 3.32 µM
GI50 (TK-10 renal): 1.75 µM
TGI (TK-10 renal): 3.17 µM
GI50 (T-47D breast): 1.56 µM
TGI (T-47D breast): 3.27 µM
GI50 (UO-31 renal): 0.854 µM
TGI (UO-31 renal): 2.09 µM
GI50 (HCT-116 colon): 0.42 µM
TGI (HCT-116 colon): 1.62 µM
GI50 (MOLT-4 leukemia): 0.494 µM
TGI (MOLT-4 leukemia): 2.28 µM
GI50 (SF-539 CNS): 0.305 µM
TGI (SF-539 CNS): 1.35 µM
GI50 (COLO 205 colon): 0.862 µM
TGI (COLO 205 colon): 2.21 µM
GI50 (NCI-H522 lung): 0.752 µM
TGI (NCI-H522 lung): 2.16 µM
GI50 (HCT-15 colon): 0.648 µM
TGI (HCT-15 colon): 1.78 µM
GI50 (SNB-19 CNS): 1.84 µM
TGI (SNB-19 CNS): 3.25 µM
GI50 (OVCAR-5 ovarian): 1.28 µM
TGI (OVCAR-5 ovarian): 2.6 µM
GI50 (SF-268 CNS): 1.07 µM
TGI (SF-268 CNS): 2.42 µM
GI50 (NCI-H460 lung): 0.982 µM
TGI (NCI-H460 lung): 2.53 µM
GI50 (SW-620 colon): 0.968 µM
TGI (SW-620 colon): 2.37 µM
GI50 (MDA-MB-231 breast): 0.401 µM
TGI (MDA-MB-231 breast): 1.73 µM
GI50 (SF-295 CNS): 1.33 µM
TGI (SF-295 CNS): 2.63 µM
GI50 (HOP-62 NSCLC): 1.47 µM
TGI (HOP-62 NSCLC): 2.89 µM
GI50 (HT29 colon): 0.603 µM
TGI (HT29 colon): 1.94 µM
GI50 (MDA-MB-468 breast): 0.76 µM
TGI (MDA-MB-468 breast): 2.08 µM
GI50 (NCI-H226 lung): 1 µM
TGI (NCI-H226 lung): 2.18 µM
GI50 (SK-MEL-5 melanoma): 1.49 µM
TGI (SK-MEL-5 melanoma): 2.81 µM
GI50 (PC-3 prostate): 1 µM
TGI (PC-3 prostate): 2.77 µM
GI50 (M14 melanoma): 0.42 µM
TGI (M14 melanoma): 1.65 µM
GI50 (SK-MEL-2 melanoma): 1.53 µM
TGI (SK-MEL-2 melanoma): 3.03 µM
GI50 (OVCAR-4 ovarian): 0.889 µM
TGI (OVCAR-4 ovarian): 3.14 µM
